Laboratory results published in ChEMBL document CHEMBL5576145, “Domoic Acid as a Lead for the Discovery of the First Selective Ligand for Kainate Receptor Subtype 5 (GluK5)” (J Med Chem, 2024).

Experiments:
[1] = Displacement of [3H]-Kainic acid from KA in rat brain membrane preincubated for 15 mins followed by [3H]-Kainic acid addition and measured after 1 hr by scintillation counting method; type: cell membranes
Glutamate receptor 4 [2] = target: T1, Glutamate receptor 4 (Rattus norvegicus, UniProt P19493); experiment: Displacement of [3H]-AMPA from AMPA in rat brain membrane preincubated for 15 mins followed by [3H]-AMPA addition and measured after 40 mins by scintillation counting method; type: cell membranes
Neuron = experiment: Agonist activity at GluK2/K5 in mouse hippocampal neurons assessed as change in holding current at 10 uM by electrophysiology; type: cell-based; settings: filed as agonist
[3] = target: Glutamate receptor ionotropic, kainate 1 (Rattus norvegicus) (UniProt P22756); experiment: Displacement of [3H]-NF608 from rat GluK1 assessed as percent of radioligand binding at 10 uM relative to control
[4] = target: Glutamate receptor ionotropic, kainate 2 (Rattus norvegicus) (UniProt P42260); experiment: Displacement of [3H]-KA from rat GluK2 assessed as percentage of radioligand binding at 10 uM relative to control
[5] = target: Glutamate receptor ionotropic, kainate 3 (Rattus norvegicus) (UniProt P42264); experiment: Displacement of [3H]-KA from rat GluK3 assessed as percentage of radioligand binding at 10 uM relative to control
[6] = target: T2, Glutamate receptor ionotropic, kainate 5 (Mus musculus) (UniProt Q61626); experiment: Displacement of [3H]-kainate from mouse GluK5 expressed in Sf9 cell membrane assessed as remaining activity at 10 uM incubated for 2 hrs by scintillation counting method relative to control; type: cell membranes
T2 sequence (whole entry): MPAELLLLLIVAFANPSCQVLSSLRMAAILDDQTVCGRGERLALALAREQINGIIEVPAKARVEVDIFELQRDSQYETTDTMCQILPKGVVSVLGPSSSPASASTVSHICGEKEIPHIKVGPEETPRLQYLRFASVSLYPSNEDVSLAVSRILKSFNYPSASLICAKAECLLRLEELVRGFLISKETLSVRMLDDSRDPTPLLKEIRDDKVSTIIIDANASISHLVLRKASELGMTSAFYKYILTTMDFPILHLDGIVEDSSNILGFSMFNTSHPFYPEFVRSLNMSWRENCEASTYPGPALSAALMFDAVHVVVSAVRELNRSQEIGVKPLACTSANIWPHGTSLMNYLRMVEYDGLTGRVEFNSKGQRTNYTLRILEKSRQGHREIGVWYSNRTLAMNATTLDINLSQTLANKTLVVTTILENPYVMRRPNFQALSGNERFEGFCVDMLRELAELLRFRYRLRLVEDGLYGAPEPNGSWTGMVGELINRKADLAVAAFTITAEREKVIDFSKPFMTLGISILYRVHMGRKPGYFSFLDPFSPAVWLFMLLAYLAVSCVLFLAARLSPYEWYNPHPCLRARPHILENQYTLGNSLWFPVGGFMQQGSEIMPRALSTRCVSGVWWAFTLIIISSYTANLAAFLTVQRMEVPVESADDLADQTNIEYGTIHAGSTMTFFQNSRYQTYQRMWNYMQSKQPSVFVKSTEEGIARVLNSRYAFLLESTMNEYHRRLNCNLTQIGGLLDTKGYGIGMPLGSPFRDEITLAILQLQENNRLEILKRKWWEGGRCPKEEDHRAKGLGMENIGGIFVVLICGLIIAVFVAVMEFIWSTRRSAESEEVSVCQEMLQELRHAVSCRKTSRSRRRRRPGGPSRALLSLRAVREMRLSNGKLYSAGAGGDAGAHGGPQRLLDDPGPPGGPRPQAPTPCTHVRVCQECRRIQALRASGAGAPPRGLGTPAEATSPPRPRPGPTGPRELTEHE

[7] = Displacement of [3H]-KA from KA in rat cortical synaptosomes incubated for 60 mins by TopCount microplate scintillation counting method; type: subcellular, Cortex, Synaptosome
[8] = target: Glutamate receptor 4 (Rattus norvegicus) (UniProt P19493); experiment: Displacement of [3H]-AMPA from AMPA in rat cortical synaptosomes assessed as remaining activity at 10 uM incubated for 30 mins by TopCount microplate scintillation counting method relative to control; type: subcellular; settings: Cortex, Synaptosome
Glutamate NMDA receptor = experiment: Displacement of [3H]CGP39653 from NMDA receptor in rat cortical synaptosomes incubated for 60 mins by Topcount microplate scintillation counting method; type: subcellular, Cortex, Synaptosome
[9] = target: T3, Glutamate receptor ionotropic, kainate 5 (Mus musculus, UniProt Q61626); experiment: Displacement of [3H]-kainate from mouse GluK5 expressed in Sf9 cell membrane incubated for 2 hrs by scintillation counting method; type: cell membranes
T3 sequence (Q61626 whole entry): T2 sequence (whole entry)

Hippocampus = experiment: Reduction in CA1 spike amplitude in Wistar rat hippocampal slices after 20 mins of toxin administration; type: functional, tissue-based
[10] = target: Glutamate receptor ionotropic, kainate 2 (Rattus norvegicus, UniProt P42260); experiment: Displacement of [3H]-KA from rat GluK2
[11] = target: Glutamate receptor ionotropic, kainate 1 (Rattus norvegicus, UniProt P22756); experiment: Displacement of [3H]-NF608 from rat GluK1
[12] = target: Glutamate receptor ionotropic, kainate 3 (Rattus norvegicus, UniProt P42264); experiment: Displacement of [3H]-KA from rat GluK3
[13] = Binding affinity to KA receptor in rat synaptosomes; type: subcellular, Synaptosome
[14] = Selectivity ratio of Ki for displacement of [3H]-KA from rat GluK3 to Ki for displacement of [3H]-kainate from mouse GluK5
[15] = Selectivity ratio of Ki for displacement of [3H]-KA from rat GluK2 to Ki for displacement of [3H]-kainate from mouse GluK5
[16] = target: Glutamate NMDA receptor (Rattus norvegicus) (UniProt P35439+Q00959+Q00960+Q00961+Q62645+Q8VHN2+Q9R1M7); experiment: Displacement of [3H]CGP39653 from NMDA receptor in rat cortical synaptosomes assessed as remaining activity at 10 uM incubated for 60 mins by Topcount microplate scintillation counting method relative to control; type: subcellular; settings: Cortex, Synaptosome
[17] = Selectivity ratio of Ki for displacement of [3H]-NF608 from rat GluK1 to Ki for displacement of [3H]-kainate from mouse GluK5
Glutamate receptor 4 [18] = target: T1, Glutamate receptor 4; experiment: Displacement of [3H]-AMPA from AMPA in rat synaptic membrane; type: subcellular, Synaptosome
[19] = Displacement of [3H]-Kainic acid from KA in rat synaptic membrane; type: subcellular, Synaptosome

T1 sequence (P19493 whole entry): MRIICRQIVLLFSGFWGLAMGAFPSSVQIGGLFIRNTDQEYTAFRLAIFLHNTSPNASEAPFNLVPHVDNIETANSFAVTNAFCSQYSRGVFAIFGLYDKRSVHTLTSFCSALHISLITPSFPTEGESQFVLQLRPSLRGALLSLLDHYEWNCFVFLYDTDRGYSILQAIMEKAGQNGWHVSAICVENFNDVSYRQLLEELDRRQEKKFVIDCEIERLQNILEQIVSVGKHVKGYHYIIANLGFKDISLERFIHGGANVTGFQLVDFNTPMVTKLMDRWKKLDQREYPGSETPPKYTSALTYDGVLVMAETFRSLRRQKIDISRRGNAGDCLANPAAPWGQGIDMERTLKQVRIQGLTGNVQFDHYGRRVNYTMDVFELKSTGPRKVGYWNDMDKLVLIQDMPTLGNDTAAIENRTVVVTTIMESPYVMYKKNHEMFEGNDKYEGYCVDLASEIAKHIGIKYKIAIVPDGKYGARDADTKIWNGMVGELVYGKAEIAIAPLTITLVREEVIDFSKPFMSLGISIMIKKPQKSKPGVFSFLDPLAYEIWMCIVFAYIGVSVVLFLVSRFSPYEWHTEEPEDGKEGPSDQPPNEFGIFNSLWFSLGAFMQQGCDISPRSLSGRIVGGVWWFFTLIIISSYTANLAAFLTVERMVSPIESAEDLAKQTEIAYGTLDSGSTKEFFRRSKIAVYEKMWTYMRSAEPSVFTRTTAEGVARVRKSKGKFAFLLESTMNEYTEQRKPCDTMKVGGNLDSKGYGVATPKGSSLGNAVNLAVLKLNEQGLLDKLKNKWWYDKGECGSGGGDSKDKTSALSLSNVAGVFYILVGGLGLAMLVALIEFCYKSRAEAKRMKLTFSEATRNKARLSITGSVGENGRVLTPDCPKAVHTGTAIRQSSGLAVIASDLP
Glutamate receptor ionotropic, kainate 2 (Rattus norvegicus), sequence (P42260 whole entry): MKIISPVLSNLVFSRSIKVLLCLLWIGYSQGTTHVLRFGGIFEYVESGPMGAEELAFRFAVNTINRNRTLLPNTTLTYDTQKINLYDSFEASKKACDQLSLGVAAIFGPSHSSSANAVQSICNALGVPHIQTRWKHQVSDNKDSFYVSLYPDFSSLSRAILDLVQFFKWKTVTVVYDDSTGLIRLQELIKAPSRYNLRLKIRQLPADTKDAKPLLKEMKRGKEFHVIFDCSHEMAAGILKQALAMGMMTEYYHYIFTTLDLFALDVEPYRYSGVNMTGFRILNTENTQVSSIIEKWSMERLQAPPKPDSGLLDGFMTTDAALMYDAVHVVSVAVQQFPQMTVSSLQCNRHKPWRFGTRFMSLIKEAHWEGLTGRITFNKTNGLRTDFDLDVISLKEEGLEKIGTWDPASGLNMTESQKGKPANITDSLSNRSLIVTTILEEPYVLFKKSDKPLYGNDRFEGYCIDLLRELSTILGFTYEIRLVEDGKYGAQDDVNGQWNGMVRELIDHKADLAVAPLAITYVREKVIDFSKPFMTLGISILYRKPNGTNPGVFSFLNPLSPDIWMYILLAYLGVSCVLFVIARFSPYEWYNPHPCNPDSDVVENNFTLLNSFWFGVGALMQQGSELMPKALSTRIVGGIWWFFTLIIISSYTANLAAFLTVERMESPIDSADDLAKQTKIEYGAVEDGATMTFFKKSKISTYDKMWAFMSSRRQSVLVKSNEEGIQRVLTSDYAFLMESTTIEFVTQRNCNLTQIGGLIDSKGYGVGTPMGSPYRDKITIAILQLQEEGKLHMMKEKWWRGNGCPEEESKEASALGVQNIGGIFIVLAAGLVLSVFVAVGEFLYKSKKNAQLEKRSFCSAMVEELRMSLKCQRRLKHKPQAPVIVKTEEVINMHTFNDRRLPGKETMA
Glutamate receptor ionotropic, kainate 3 (Rattus norvegicus), sequence (P42264 whole entry): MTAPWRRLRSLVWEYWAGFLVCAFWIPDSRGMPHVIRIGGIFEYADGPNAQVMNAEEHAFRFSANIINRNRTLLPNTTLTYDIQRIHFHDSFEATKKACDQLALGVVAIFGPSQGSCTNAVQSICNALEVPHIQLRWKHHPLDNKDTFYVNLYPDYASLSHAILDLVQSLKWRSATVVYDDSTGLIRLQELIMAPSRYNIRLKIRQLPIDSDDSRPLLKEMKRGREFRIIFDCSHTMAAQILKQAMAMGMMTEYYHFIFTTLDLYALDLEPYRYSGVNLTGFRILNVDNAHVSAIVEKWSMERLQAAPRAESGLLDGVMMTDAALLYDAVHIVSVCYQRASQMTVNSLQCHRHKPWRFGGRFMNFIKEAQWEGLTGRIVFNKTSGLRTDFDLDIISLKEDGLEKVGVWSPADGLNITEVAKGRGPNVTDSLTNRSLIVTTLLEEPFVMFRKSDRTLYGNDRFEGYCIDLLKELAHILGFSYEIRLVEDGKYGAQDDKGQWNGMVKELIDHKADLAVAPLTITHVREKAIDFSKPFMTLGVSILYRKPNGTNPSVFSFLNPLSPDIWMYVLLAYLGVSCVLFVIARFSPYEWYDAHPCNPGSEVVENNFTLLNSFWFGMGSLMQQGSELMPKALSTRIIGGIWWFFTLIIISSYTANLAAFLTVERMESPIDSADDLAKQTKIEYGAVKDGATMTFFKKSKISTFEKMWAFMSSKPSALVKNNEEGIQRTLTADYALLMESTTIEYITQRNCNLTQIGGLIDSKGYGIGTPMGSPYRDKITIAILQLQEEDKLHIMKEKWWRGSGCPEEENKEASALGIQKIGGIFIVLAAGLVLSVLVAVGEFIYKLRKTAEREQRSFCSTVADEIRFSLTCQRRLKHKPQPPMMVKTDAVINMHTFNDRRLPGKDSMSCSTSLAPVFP
Glutamate receptor ionotropic, kainate 1 (Rattus norvegicus), sequence (P22756 whole entry): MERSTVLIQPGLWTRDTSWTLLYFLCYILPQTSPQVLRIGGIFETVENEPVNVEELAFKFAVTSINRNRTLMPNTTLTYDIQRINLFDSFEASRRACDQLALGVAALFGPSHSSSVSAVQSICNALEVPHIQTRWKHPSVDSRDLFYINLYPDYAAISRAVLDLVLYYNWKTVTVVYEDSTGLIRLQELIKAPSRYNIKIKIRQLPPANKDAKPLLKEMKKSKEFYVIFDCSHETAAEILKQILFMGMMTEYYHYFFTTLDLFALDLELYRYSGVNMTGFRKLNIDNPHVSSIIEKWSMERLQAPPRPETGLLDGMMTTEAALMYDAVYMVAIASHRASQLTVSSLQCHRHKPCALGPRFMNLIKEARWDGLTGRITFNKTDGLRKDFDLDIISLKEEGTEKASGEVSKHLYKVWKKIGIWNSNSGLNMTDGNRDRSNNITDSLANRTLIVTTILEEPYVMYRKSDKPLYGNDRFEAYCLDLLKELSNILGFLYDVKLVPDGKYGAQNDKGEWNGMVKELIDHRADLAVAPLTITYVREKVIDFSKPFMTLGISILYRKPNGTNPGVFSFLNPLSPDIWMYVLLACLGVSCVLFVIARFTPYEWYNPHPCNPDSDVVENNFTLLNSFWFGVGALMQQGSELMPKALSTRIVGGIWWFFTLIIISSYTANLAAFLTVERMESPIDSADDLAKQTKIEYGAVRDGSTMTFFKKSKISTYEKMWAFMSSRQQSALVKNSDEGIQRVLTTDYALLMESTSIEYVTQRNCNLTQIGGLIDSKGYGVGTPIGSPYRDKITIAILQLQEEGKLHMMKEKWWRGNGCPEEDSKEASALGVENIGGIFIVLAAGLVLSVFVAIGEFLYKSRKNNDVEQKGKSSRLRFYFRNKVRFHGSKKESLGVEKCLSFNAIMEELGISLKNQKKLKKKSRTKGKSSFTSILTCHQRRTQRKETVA
Glutamate receptor 4 (Rattus norvegicus), sequence (P19493 whole entry): as the sequence (P19493 whole entry) above
Glutamate receptor ionotropic, kainate 2, sequence (P42260 whole entry): as the sequence (P42260 whole entry) above
Glutamate receptor ionotropic, kainate 3, sequence (P42264 whole entry): as the sequence (P42264 whole entry) above
Glutamate receptor ionotropic, kainate 1, sequence (P22756 whole entry): as the sequence (P22756 whole entry) above

Structure (SMILES) | Activity [3] | Activity [4] | Activity [5] | Ki [9] | IC50 [1] | IC50 (Glutamate receptor 4 [2]) | further results
C/C(=C/C=C/[C@H](C)C(=O)O)[C@H]1CN[C@H](C(=O)O)[C@H]1CC(=O)O |  |  |  |  | 0.028 µM | 5.7 µM | 
C/C(=C\C=C/[C@@H](C)C(=O)O)[C@H]1CN[C@H](C(=O)O)[C@H]1CC(=O)O |  |  |  |  | 1.4 µM | 32 µM | Activity (Neuron): 2940 pA
C/C(=C/CC[C@@H](C)C(=O)O)[C@H]1CN[C@H](C(=O)O)[C@H]1CC(=O)O |  |  |  |  | 0.009 µM | 3.6 µM | 
C/C(=C/C=C\[C@@H](C)C(=O)O)[C@H]1CN[C@H](C(=O)O)[C@H]1CC(=O)O |  |  |  |  | 0.028 µM | 17 µM | 
C=C(CC/C=C(\C)C(=O)O)[C@H]1CN[C@H](C(=O)O)[C@H]1CC(=O)O |  |  |  |  |  |  | EC50 (Hippocampus): 3.71 µM
O=C(O)C[C@@H]1[C@@H](C(=O)O)NC[C@@H]1n1nncc1CN1CCS(=O)(=O)CC1 | 97% | 80% | 91% |  |  |  | Activity [6]: 94%
O=C(O)C[C@@H]1[C@@H](C(=O)O)NC[C@@H]1n1nncc1-c1ccc(F)cc1F | 96% | 73% | 90% | 5.35 µM |  |  | 
Nc1nc([C@H]2CN[C@H](C(=O)O)[C@H]2CC(=O)O)cs1 |  |  |  |  |  |  | IC50 [13]: 0.005 µM
C=C(C)[C@H]1CN[C@H](C(=O)O)[C@H]1CC(=O)O [KAINIC ACID] |  |  |  |  |  |  | IC50 (Glutamate receptor 4 [18]): 1.9 µM; IC50 [19]: 0.012 µM
C[C@H](CCC[C@@H](C)[C@H]1CN[C@H](C(=O)O)[C@H]1CC(=O)O)C(=O)O |  |  |  |  | 27 µM | > 100 µM | 

The next lines start with results.

Activity [3] | Activity [4] | Activity [5] | Ki [9] | Structure (SMILES) | IC50 [1] | IC50 (Glutamate receptor 4 [2]) | further results
95% | 103% | 85% |  | O=C(O)C[C@@H]1[C@@H](C(=O)O)NC[C@@H]1n1nncc1-c1ccc(C(F)(F)F)cc1 |  |  | Activity [6]: 62%
92% | 76% | 90% | 2.15 µM | O=C(O)C[C@@H]1[C@@H](C(=O)O)NC[C@@H]1n1nncc1-c1cccc(C(F)(F)F)c1 |  |  | IC50 [7]: 5.1 µM; Activity [8]: 80%; Ki (Glutamate NMDA receptor): 101 µM
 |  |  | 0.258 µM | O=C(O)C[C@@H]1[C@@H](C(=O)O)NC[C@@H]1n1nncc1-c1ccccn1 |  |  | Ki [10]: 7.76 µM; Ki [11]: 11.5 µM; Ki [12]: 3.75 µM
98% | 92% | 80% |  | O=C(O)C[C@@H]1[C@@H](C(=O)O)NC[C@@H]1n1nncc1-c1cccnc1 |  |  | Activity [6]: 47%
88% | 89% | 74% | 1.02 µM | COc1cccc(-c2cnnn2[C@H]2CN[C@H](C(=O)O)[C@H]2CC(=O)O)c1 |  |  | 
93% |  |  | 0.499 µM | O=C(O)C[C@@H]1[C@@H](C(=O)O)NC[C@@H]1n1nncc1-c1ccccc1 |  |  | IC50 [7]: 5.1 µM; Ratio Ki [14]: > 40; Ki [10]: 36 µM; Ratio Ki [15]: > 40; Activity [16]: 101%; Activity [8]: 80%; Ki [12]: 21.1 µM; Ratio Ki [17]: > 40
